Biological target: T1, HDAC6 enzyme (Homo sapiens, UniProt Q9UBN7)
T1 construct: transducing full length HDAC6 gene into Sf-9 insect cells; GST; purchased SignalChem; host or cells: Sf-9 insect cells
T1 sequence (Q9UBN7 1-1215): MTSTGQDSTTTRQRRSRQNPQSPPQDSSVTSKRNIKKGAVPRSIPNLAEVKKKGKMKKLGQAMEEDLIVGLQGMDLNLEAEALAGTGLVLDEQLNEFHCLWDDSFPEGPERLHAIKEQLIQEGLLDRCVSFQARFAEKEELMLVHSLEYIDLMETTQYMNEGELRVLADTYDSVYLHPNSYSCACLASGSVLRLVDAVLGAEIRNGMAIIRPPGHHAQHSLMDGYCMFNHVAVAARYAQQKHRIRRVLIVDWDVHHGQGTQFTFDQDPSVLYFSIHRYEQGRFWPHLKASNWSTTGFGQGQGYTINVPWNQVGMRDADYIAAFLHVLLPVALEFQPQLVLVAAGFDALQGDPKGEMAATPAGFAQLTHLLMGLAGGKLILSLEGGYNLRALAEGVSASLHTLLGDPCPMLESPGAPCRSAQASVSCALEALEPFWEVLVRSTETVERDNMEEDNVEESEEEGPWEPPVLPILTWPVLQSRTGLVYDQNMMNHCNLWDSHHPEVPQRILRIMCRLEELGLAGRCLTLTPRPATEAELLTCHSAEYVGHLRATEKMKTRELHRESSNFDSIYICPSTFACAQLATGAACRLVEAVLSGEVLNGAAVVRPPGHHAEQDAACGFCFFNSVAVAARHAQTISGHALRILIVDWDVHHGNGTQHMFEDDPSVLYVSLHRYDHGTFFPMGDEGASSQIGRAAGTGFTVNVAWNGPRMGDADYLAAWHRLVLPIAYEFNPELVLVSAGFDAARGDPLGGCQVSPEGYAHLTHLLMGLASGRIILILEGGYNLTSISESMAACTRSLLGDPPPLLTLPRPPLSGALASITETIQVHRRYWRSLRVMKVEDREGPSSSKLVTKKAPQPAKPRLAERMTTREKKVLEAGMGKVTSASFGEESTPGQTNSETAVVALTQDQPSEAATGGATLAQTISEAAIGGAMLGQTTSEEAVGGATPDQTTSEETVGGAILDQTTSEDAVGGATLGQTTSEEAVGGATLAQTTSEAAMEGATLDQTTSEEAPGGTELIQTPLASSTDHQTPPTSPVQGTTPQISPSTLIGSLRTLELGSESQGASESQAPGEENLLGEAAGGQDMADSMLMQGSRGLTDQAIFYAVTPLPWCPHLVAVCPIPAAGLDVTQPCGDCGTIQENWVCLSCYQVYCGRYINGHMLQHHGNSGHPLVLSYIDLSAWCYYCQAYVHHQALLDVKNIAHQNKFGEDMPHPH
Experiment: HDAC6 enzyme inhibitory activity (HDAC-Glo I/II Assay kit)
Assay type: biochemical
Conditions: 10 μM; wells without enzyme = 100% inhibition
Experimental: HDAC6 enzyme prepared by transducing full length HDAC6 gene into Sf-9 insect cells and purifying by GST affinity column were purchased from SignalChem. Using this enzyme, HDAC6 enzyme inhibitory activities of the compound of the present invention were evaluated. Enzymes were used after preserved at −70° C. HDAC6 enzyme inhibitory activity of the compound of the present invention was measured using HDAC-Glo™ I/II Assay kit (Promega) according to the following experimental method. The test compound diluted with assay buffer (24 mM Tris-HCl (pH 7.5), 1 mM MgCl2, 0.35 mM KCl, 135 mM NaCl, 0.6 mM Glutathione, 0.01% Tween-20) was added to a 384-well plate by each 2 μL. Then, HDAC6 enzyme solution diluted with assay buffer was added thereto by each 4 μL, and the plate was incubated at room temperature for 60 min. After incubated, HDAC substrate-Developer solution prepared according to Promega protocol attached to the assay kit was added to the 384-well plate by each 2 μL, and the enzyme reaction was started. After reacting at room temperature for 20 min, luminescence level was measured using plate reader Envision (PerkinElmer). The inhibitory activity of each compound of Example was calculated as a relative activity value when luminescence level in wells without enzyme is considered as 100% inhibition.

| HDAC6 inhibitory rate (%) (10 μM) | SMILES |
| --- | --- |
| 100% | O=C1c2cc(-c3nnc(C(F)F)o3)ccc2CN1[C@@H]1CCCC[C@H]1n1cccn1 (relative stereo) [Example 529, 6-(5-(difluoromethyl)-1,3,4-oxadiazol-2-yl)-2-((1R*,2R*)-2-(1H-pyrazol-1-yl)cyclohexyl)isoindolin-1-one (optical isomer)] |
| 100% | O=C1c2cc(-c3nnc(C(F)F)o3)ccc2CN1[C@H]1CCCC[C@H]1n1cccn1 (relative stereo) [Example 543, 6-(5-(difluoromethyl)-1,3,4-oxadiazol-2-yl)-2-((1S*,2R*)-2-(1H-pyrazol-1-yl)cyclohexyl)isoindolin-1-one (optical isomer)] |
| 100% | COC(=O)N1CC[C@@H](c2ccc(F)cc2)[C@H](N2Cc3ccc(-c4nnc(C(F)F)o4)cc3C2=O)C1 (relative stereo) [Example 545, methyl (3S*,4S*)-3-(6-(5-(difluoromethyl)-1,3,4-oxadiazol-2-yl)-1-oxo-1,3-dihydro-2H-isoindol-2-yl)-4-(4-fluorophenyl)piperidine-1-carboxylate (optical isomer)] |
| 100% | O=C1c2cc(-c3nnc(C(F)F)o3)cnc2CN1[C@@H]1CCCC[C@H]1Oc1ccc(F)cc1 (relative stereo) [Example 552, 3-(5-(difluoromethyl)-1,3,4-oxadiazol-2-yl)-6-((1R*,2R*)-2-(4-fluorophenoxy)cyclohexyl)-6,7-dihydro-5H-pyrrolo[3,4-b]pyridin-5-one (optical isomer)] |
| 100% | O=C1c2cc(-c3nnc(C(F)F)o3)cnc2CN1[C@@H]1CCCC[C@H]1c1ccccn1 (relative stereo) [Example 588, 3-(5-(difluoromethyl)-1,3,4-oxadiazol-2-yl)-6-((1R*,2R*)-2-(pyridin-2-yl)cyclohexyl)-6,7-dihydro-5H-pyrrolo[3,4-b]pyridin-5-one (optical isomer)] |

Same assay, conditions: 10 μM; wells without enzyme = 100% inhibition; read-out: HDAC6 inhibitory rate (%) (10 μM)

| inhibition at 10 µM | SMILES |
| --- | --- |
| 100% | O=C(C(F)F)N1CCC[C@H](N2Cc3ccc(-c4nnc(C(F)F)o4)cc3C2=O)[C@H]1c1ccc(F)cc1 (racemic) [Example 584, 2-((2RS,3SR)-1-(difluoroacetyl)-2-(4-fluorophenyl)piperidin-3-yl)-6-(5-(difluoromethyl)-1,3,4-oxadiazol-2-yl)isoindolin-1-one] |
| 100% | O=C1c2cc(-c3nnc(C(F)F)o3)cnc2CN1[C@@H]1CCCC[C@H]1Oc1cncc(F)c1 (racemic) [Example 585, 3-(5-(difluoromethyl)-1,3,4-oxadiazol-2-yl)-6-((1RS,2RS)-2-((5-fluoropyridin-3-yl)oxy)cyclohexyl)-6,7-dihydro-5H-pyrrolo[3,4-b]pyridin-5-one] |
| 99% | CC(C)(C)OC(=O)N1CCC[C@@H](N2Cc3ccc(-c4nnc(C(F)F)o4)cc3C2=O)[C@H]1c1ccc(F)cc1 (racemic) [Example 618, tert-butyl (2RS,3RS)-3-(6-(5-(difluoromethyl)-1,3,4-oxadiazol-2-yl)-1-oxo-1,3-dihydro-2H-isoindol-2-yl)-2-(4-fluorophenyl)piperidine-1-carboxylate] |
| 101% | O=C1c2cc(-c3nnc(C(F)F)o3)ccc2CN1[C@@H]1CCCN[C@@H]1c1ccc(F)cc1 (racemic) [Example 620, 6-(5-(difluoromethyl)-1,3,4-oxadiazol-2-yl)-2-((2RS, 3RS)-2-(4-fluorophenyl)piperidin-3-yl)isoindolin-1-one] |
| 100% | O=C1c2cc(-c3nnc(C(F)F)o3)ccc2CN1[C@@H]1CCCN(C(=O)C(F)F)[C@@H]1c1ccc(F)cc1 (racemic) [Example 624, 2-((2RS,3RS)-1-(difluoroacetyl)-2-(4-fluorophenyl)piperidin-3-yl)-6-(5-(difluoromethyl)-1,3,4-oxadiazol-2-yl)isoindolin-1-one] |
| 100% | O=C1c2cc(-c3nnc(C(F)F)o3)cnc2CN1[C@@H]1CCCC[C@H]1c1ccn[nH]1 (racemic) [Example 654, 3-[5-(difluoromethyl)-1,3,4-oxadiazol-2-yl]-6-[(1RS,2RS)-2-(1H-pyrazol-5-yl)cyclohexyl]-6,7-dihydro-5H-pyrrolo[3,4-b]pyridin-5-one] |
| 99% | O=C1c2cc(-c3nnc(C(F)F)o3)ccc2CN1[C@@H]1CCCC[C@H]1n1cccn1 (relative stereo) [Example 528, 6-(5-(difluoromethyl)-1,3,4-oxadiazol-2-yl)-2-((1R*,2R*)-2-(1H-pyrazol-1-yl)cyclohexyl)isoindolin-1-one (optical isomer)] |
| 99% | O=C1c2cc(-c3nnc(C(F)F)o3)cnc2CN1[C@@H]1CCCC[C@H]1n1cccn1 (relative stereo) [Example 539, 3-(5-(difluoromethyl)-1,3,4-oxadiazol-2-yl)-6-((1R*,2R*)-2-(1H-pyrazol-1-yl)cyclohexyl)-6,7-dihydro-5H-pyrrolo[3,4-b]pyridin-5-one (optical isomer)] |
| 90% | O=C1c2cc(-c3nnc(C(F)F)o3)ccc2CN1[C@H]1CCCC[C@H]1n1cccn1 (relative stereo) [Example 542, 6-(5-(difluoromethyl)-1,3,4-oxadiazol-2-yl)-2-((1S*,2R*)-2-(1H-pyrazol-1-yl)cyclohexyl)isoindolin-1-one (optical isomer)] |
| 99% | COC(=O)N1CC[C@@H](c2ccc(F)cc2)[C@H](N2Cc3ccc(-c4nnc(C(F)F)o4)cc3C2=O)C1 (relative stereo) [Example 544, methyl (3S*,4S*)-3-(6-(5-(difluoromethyl)-1,3,4-oxadiazol-2-yl)-1-oxo-1,3-dihydro-2H-isoindol-2-yl)-4-(4-fluorophenyl)piperidine-1-carboxylate (optical isomer)] |
| 99% | O=C1c2cc(-c3nnc(C(F)F)o3)cnc2CN1[C@@H]1CCCC[C@H]1Oc1ccc(F)cc1 (relative stereo) [Example 551, 3-(5-(difluoromethyl)-1,3,4-oxadiazol-2-yl)-6-((1R*,2R*)-2-(4-fluorophenoxy)cyclohexyl)-6,7-dihydro-5H-pyrrolo[3,4-b]pyridin-5-one (optical isomer)] |
| 100% | O=C1c2cc(-c3nnc(C(F)F)o3)ccc2CN1[C@@H]1CCC(F)(F)C[C@H]1c1ccccn1 (relative stereo) [Example 586, 6-(5-(difluoromethyl)-1,3,4-oxadiazol-2-yl)-2-((1R*,2R*)-4,4-difluoro-2-(pyridin-2-yl)cyclohexyl)isoindolin-1-one (Optical Isomer)] |
| 99% | O=C1c2cc(-c3nnc(C(F)F)o3)cnc2CN1[C@@H]1CCCC[C@H]1c1ccccn1 (relative stereo) [Example 587, 3-(5-(difluoromethyl)-1,3,4-oxadiazol-2-yl)-6-((1R*,2R*)-2-(pyridin-2-yl)cyclohexyl)-6,7-dihydro-5H-pyrrolo[3,4-b]pyridin-5-one (optical isomer)] |
| 100% | O=C1c2cc(-c3nnc(C(F)F)o3)ccc2CN1[C@@H]1CCC(F)(F)C[C@@H]1c1ccccn1 (relative stereo) [Example 590, 6-(5-(difluooromethyl)-1,3,4-oxadiazol-2-yl)-2-((1R*,2S*)-4,4-difluoro-2-(pyridin-2-yl)cyclohexyl)isoindolin-1-one (optical isomer)] |

Source: patent US10435399B2, “HDAC6 inhibitory heterocyclic compound” (TAKEDA PHARMACEUTICAL COMPANY LIMITED, priority 2017, dated 2019)
